Laboratory results from patent publication US20110189174A1, “COMPOSITIONS AND METHODS FOR TREATING, REDUCING, AMELIORATING, ALLEVIATING, OR INHIBITING PROGRESSION OF, PATHOGENIC OCULAR NEOVASCULARIZATION” (priority 2010, published 2011).

Tests used:
[1] = system: human retinal endothelial cells (HREC); experiment: Testing 4: VEGF-induced HREC proliferation (MTS assay), Avastin with or without BOL-303050-X; type: cell-based; conditions: for HREC proliferation in the presence of VEGF, compound alone: VEGF 10 ng/ml, 3 days
Method: HREC were first cultured overnight in a 96-well plate coated with fibronectin. The next day, cells were serum-starved for 2 hours before treatment. […] The cells were then cultured at 37° C., 5% CO2, and 95% humidity for another 3 days.
A 96-well plate was coated with human fibronectin (10 μg/ml) at 37° C. for 5 h. HREC were collected from flasks by EDTA-trypsin treatment and re-suspended in 10% FBS CS-C medium at 18,000 cells/ml. Cells (200 μl/well) were added to the plate and cultured overnight at 37° C., 5% CO2, and 95% humidity. The next day, medium was aspirated and 200 μl/well serum-free medium was added for 2 h at 37° C., 5% CO2, and 95% humidity.
(§1) Normal IgG was added in such a way that all groups contained the same amount of IgG proteins. All medium solutions were incubated for 1 h at 37° C., 5% CO2, and 95% humidity. After carefully aspirating the medium from cells, 200 μl of the medium containing different agents were added into appropriate wells. The cells were further cultured for 3 days.
At the end of incubation, the medium was carefully aspirated from cells and 120 μl of MTS working solution was added into all wells including four blank wells (without cells). The plate was incubated at 37° C., 5% CO2, and 95% humidity for 1 hour and then read by a plate reader at 490 nm wavelength.
(§2) Median optical density (OD) was generated from different groups. Data were expressed as mean±SEM of the OD values. Statistical analysis was performed using two-way ANOVA followed by the contrast procedure after Box-Cox transformations if needed, and p<0.05 was considered statistically significant. […] All the data from the individual wells were fitted to a re-parameterized four-parameter logistic equation to obtain IC50 using similar methodology as that previously described and utilizing the statistical analysis software JMP (SAS Institute, Cary, N.C.).

[2] = Intraocular pressure (Tono-pen) in monkeys after intravitreal injection; type: in vivo, cynomolgus monkeys (Macaca fascicularis); conditions: day 38 only; 1.5 mg/eye intravitreal days 1 and 15
Method: (§3) Once the phase Ib study was completed, and it was established that the drug suspension in oil would not interfere with either laser administration, evaluation of CNV or cause adverse effects, phase II was initiated. On days 1, and 15 both eyes of monkeys received 50 μL of Lucentis (0.5 mg/eye), vehicle (0 mg/eye), BOL-303050-X (1.5 mg/eye), BOL-303054-X (1.5 mg/eye) or BOL-303055-X (1.5 mg/eye) (Table 2). Intravitreous injection was performed for each by eye aiming towards mid-vitreous body. Dosing in the right eye was alternated for successive doses (as applicable) at approximately the 11 o'clock and 10 o'clock positions. Dosing in the left eye was alternated for successive doses (as applicable) from approximately the 1 o'clock and 2 o'clock positions.
IOP was done in conjunction with the OE using a Tono-pen on anesthetized monkeys on days 1, 3, 7, 15, and 31 of dosing Phase II and on the day of scheduled sacrifice (day 38).
Grade IV lesions were analyzed using either Fisher's exact probability test (2-Tail) or Chi square test (χ2). For the analysis of delta changes in TOP a two-way ANOVA with repeated measures followed by the contrast procedure was performed on Box-Cox transformed data if needed. Unless indicated otherwise, data are presented as means±SEM unless stated otherwise. P<0.05 was considered statistically significant.

[3] = Clinical ophthalmic examination in monkeys (vitreal cell scores, anterior chamber inflammation); type: in vivo, cynomolgus monkeys (Macaca fascicularis); conditions: for Vitreal cell score: number of eyes with grade 0 / Vitreal cell score: number of eyes with grade 1 / Vitreal cell score: number of eyes with grade 2 / Vitreal cell score: number of eyes with grade 3 / Vitreal cell score: number of eyes with grade 4 / Vitreal cell score: number of eyes with grade Trace: intravitreal days 1 and 15, cells not distinguishable from dispersed drug
Method: as §3
Animals were examined at baseline, on days 1, 3, 7, 15, and 31 of Dosing Phase II and on the day of scheduled sacrifice (day 38). On days of dose administration the ophthalmic examination was done prior to dosing.

[4] = system: human retinal endothelial cells (HREC); experiment: Testing 6: VEGF-induced HREC proliferation (MTS assay), BOL-303055-X and Avastin alone and in combination; type: cell-based; conditions: BOL-303055-X 1 nM, VEGF 10 ng/ml
Method: HREC were first cultured overnight in a 96-well plate coated with fibronectin. The next day, cells were serum-starved for 2 hours. The medium containing different agents as shown in Table 12 was pre-incubated for 1 hour before being added into appropriate wells. The cells were further cultured at 37° C., 5% CO2, and 95% humidity for another 3 days. After that, cell proliferation was estimated by the MTS assay—a cell metabolic activity assay (disclosed hereinabove).
A 96-well plate was coated with human fibronectin (10 μg/ml) for 5 h at 37° C., 5% CO2, and 95% humidity. HREC were collected from flasks by EDTA-trypsin treatment and re-suspended in 10% FBS CS-C medium at 18,000 cells/ml. Cells (200 μl/well) were added to the plate and cultured for overnight at 37° C., 5% CO2, and 95% humidity. Next day, medium was aspirated and serum-free medium was added to wells at 200 μl/well for 2 hours.
as §1, with “was also” for “was”, “IgG protein.” for “IgG proteins.”, “agents was” for “agents were”
At the end of incubation, the medium was carefully aspirated from cells and 120 μl of MTS working solution was added into all wells. The plate was incubated at 37° C., 5% CO2, and 95% humidity for 1 hour and then read by a plate reader at 490 nm wavelength.
as §2, with “a three-way” for “two-way”, “on log-transformed data,” for “after Box-Cox transformations if needed,”, “P<0.05” for “p<0.05”

COc1ccc(S(=O)(=O)N[C@@H](CNc2nc(C)nc(N3CCC(c4ccc5c(n4)NCCC5)CC3)c2C)C(=O)O)cc1 [BOL-303050-X]
HREC proliferation in the presence of VEGF, compound alone ([1]; 1 nM): significantly reduced | HREC proliferation in the presence of VEGF, compound alone ([1]; 10 nM): significantly reduced | HREC proliferation under basal conditions ([1]; 1 and 10 nM tested, no VEGF): significant effects were only observed at 10 nM | Combination effect with Avastin on VEGF-induced HREC proliferation (synergistic/additive) ([1]; compound 1 nM, Avastin 30 to 300 ng/ml): synergistic effects | Combination effect with Avastin on VEGF-induced HREC proliferation (synergistic/additive) ([1]; compound 10 nM, Avastin at all doses): additive effect | Improvement of the potency of Avastin ([1]; compound at 1 and 10 nM): 6- to 7 fold | Reduction of IOP versus baseline [2]: 4 mm Hg | Vitreal cell score: number of eyes with grade 0 ([3]; Day 3): 8 | Vitreal cell score: number of eyes with grade 1 ([3]; Day 3): 5 | Vitreal cell score: number of eyes with grade 2 ([3]; Day 3): 0 | Vitreal cell score: number of eyes with grade 3 ([3]; Day 3): 0 | Vitreal cell score: number of eyes with grade 4 ([3]; Day 3): 1 | Vitreal cell score: number of eyes with grade Trace ([3]; Day 3): 4 | Vitreal cell score: number of eyes with grade 0 ([3]; Day 7): 1 | Vitreal cell score: number of eyes with grade 1 ([3]; Day 7): 4 | Vitreal cell score: number of eyes with grade 2 ([3]; Day 7): 6 | Vitreal cell score: number of eyes with grade 3 ([3]; Day 7): 2 | Vitreal cell score: number of eyes with grade 4 ([3]; Day 7): 5 | Vitreal cell score: number of eyes with grade Trace ([3]; Day 7): 0 | Vitreal cell score: number of eyes with grade 0 ([3]; Day 15): 1 | Vitreal cell score: number of eyes with grade 1 ([3]; Day 15): 8 | Vitreal cell score: number of eyes with grade 2 ([3]; Day 15): 2 | Vitreal cell score: number of eyes with grade 3 ([3]; Day 15): 1 | Vitreal cell score: number of eyes with grade 4 ([3]; Day 15): 4 | Vitreal cell score: number of eyes with grade Trace ([3]; Day 15): 2 | Vitreal cell score: number of eyes with grade 0 ([3]; Day 31): 0 | Vitreal cell score: number of eyes with grade 1 ([3]; Day 31): 2 | Vitreal cell score: number of eyes with grade 2 ([3]; Day 31): 1 | Vitreal cell score: number of eyes with grade 3 ([3]; Day 31): 1 | Vitreal cell score: number of eyes with grade 4 ([3]; Day 31): 11 | Vitreal cell score: number of eyes with grade Trace ([3]; Day 31): 0 | Vitreal cell score: number of eyes with grade 0 ([3]; Day 38): 0 | Vitreal cell score: number of eyes with grade 1 ([3]; Day 38): 1 | Vitreal cell score: number of eyes with grade 2 ([3]; Day 38): 0 | Vitreal cell score: number of eyes with grade 3 ([3]; Day 38): 3 | Vitreal cell score: number of eyes with grade 4 ([3]; Day 38): 12 | Vitreal cell score: number of eyes with grade Trace ([3]; Day 38): 0 | Drug-related ocular findings ([3]; oil formulation, 1.5 mg/eye intravitreal): No drug-related ocular findings were reported

bevacizumab [Avastin, reference compound]
Inhibition of VEGF-induced HREC proliferation, agent alone ([4]; Avastin 3-300 ng/ml (significant from 30 ng/ml)): dose-dependent inhibition | IC50 ± SE of Avastin plus BOL-303055-X on inhibiting VEGF-induced proliferation of HREC ([4]; estimated): 0.016 µg/mL | Inhibition of VEGF-induced HREC proliferation by Avastin alone ([1]; 3-300 ng/ml, significant from 10 ng/ml): dose-dependent inhibition | IC50 of Avastin on VEGF-induced HREC proliferation ([1]; in the presence of BOL-303050-X 1 nM): 0.015 µg/mL | IC50 of Avastin on VEGF-induced HREC proliferation ([1]; in the presence of BOL-303050-X 10 nM): 0.013 µg/mL

COc1c(NC[C@H](NC(=O)OCc2ccccc2)C(=O)O)ncnc1N1CCC(c2ccc3c(n2)NCCC3)CC1 [BOL-303054-X]
Vitreal cell score: number of eyes with grade 0 ([3]; Day 3): 9 | Vitreal cell score: number of eyes with grade 1 ([3]; Day 3): 1 | Vitreal cell score: number of eyes with grade 2 ([3]; Day 3): 1 | Vitreal cell score: number of eyes with grade 3 ([3]; Day 3): 0 | Vitreal cell score: number of eyes with grade 4 ([3]; Day 3): 0 | Vitreal cell score: number of eyes with grade Trace ([3]; Day 3): 5 | Vitreal cell score: number of eyes with grade 0 ([3]; Day 7): 2 | Vitreal cell score: number of eyes with grade 1 ([3]; Day 7): 2 | Vitreal cell score: number of eyes with grade 2 ([3]; Day 7): 2 | Vitreal cell score: number of eyes with grade 3 ([3]; Day 7): 4 | Vitreal cell score: number of eyes with grade 4 ([3]; Day 7): 6 | Vitreal cell score: number of eyes with grade Trace ([3]; Day 7): 2 | Vitreal cell score: number of eyes with grade 0 ([3]; Day 15): 0 | Vitreal cell score: number of eyes with grade 1 ([3]; Day 15): 6 | Vitreal cell score: number of eyes with grade 2 ([3]; Day 15): 2 | Vitreal cell score: number of eyes with grade 3 ([3]; Day 15): 0 | Vitreal cell score: number of eyes with grade 4 ([3]; Day 15): 8 | Vitreal cell score: number of eyes with grade Trace ([3]; Day 15): 0 | Vitreal cell score: number of eyes with grade 0 ([3]; Day 31): 0 | Vitreal cell score: number of eyes with grade 1 ([3]; Day 31): 1 | Vitreal cell score: number of eyes with grade 2 ([3]; Day 31): 8 | Vitreal cell score: number of eyes with grade 3 ([3]; Day 31): 2 | Vitreal cell score: number of eyes with grade 4 ([3]; Day 31): 6 | Vitreal cell score: number of eyes with grade Trace ([3]; Day 31): 1 | Vitreal cell score: number of eyes with grade 0 ([3]; Day 38): 0 | Vitreal cell score: number of eyes with grade 1 ([3]; Day 38): 0 | Vitreal cell score: number of eyes with grade 2 ([3]; Day 38): 3 | Vitreal cell score: number of eyes with grade 3 ([3]; Day 38): 2 | Vitreal cell score: number of eyes with grade 4 ([3]; Day 38): 13 | Vitreal cell score: number of eyes with grade Trace ([3]; Day 38): 0 | Anterior chamber inflammation ([3]; left eye of one monkey that developed endophthalmitis on day 29, until day 38): Moderate anterior chamber inflammation
